Common to all, as to assay type: in vivo
Test [1] has as its system Echinochloa crus-galli (ECHCG). The test can be described thus: Post-emergence herbicidal activity, glasshouse pot test. The note with it: Echinochloa crus-galli, evaluated after 14 or 15 days, read-out: Post-emergence activity, ECHCG (100=total damage to plant; 0=no damage to plant); for pest or weed control at 125 g/ha: rate 125 g/ha; for pest or weed control at 500 g/ha: rate 500 g/ha. In short, it runs like this: (§1)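 Test species were grown in sterilised soil for 10 days, sprayed post-emergence with the aqueous formulated compound, and kept in a greenhouse under optimum conditions. Herbicidal effect was assessed after 14 or 15 days as percent damage, where 0 means no effect.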

Test [2] relates to Avena fatua (AVEFA). The description is as above. Conditions: evaluated after 14 or 15 days; for pest or weed control at 125 g/ha / pest or weed control at 500 g/ha: Avena fatua, read-out: Post-emergence activity, AVEFA (100=total damage to plant; 0=no damage to plant); for pest or weed control at 125 g/ha: rate 125 g/ha. In short, it runs like this:
as §1

The subject of test [3] is Alopecurus myosuroides (ALOMY). Described as above. Conditions: Alopecurus myosuroides, evaluated after 14 or 15 days, read-out: Post-emergence activity, ALOMY (100=total damage to plant; 0=no damage to plant); for pest or weed control at 125 g/ha: rate 125 g/ha; for pest or weed control at 500 g/ha: rate 500 g/ha. Summed up: as §1
For test [4], the system named is Lolium perenne (LOLPE). The description is as above. The note with it: Lolium perenne, evaluated after 14 or 15 days, read-out: Post-emergence activity, LOLPE (100=total damage to plant; 0=no damage to plant); for pest or weed control at 125 g/ha: rate 125 g/ha; for pest or weed control at 500 g/ha: rate 500 g/ha. Summed up: as §1
Test [5] has as its system Digitaria sanguinalis (DIGSA). The test is described as above. Conditions: Digitaria sanguinalis, evaluated after 14 or 15 days, read-out: Post-emergence activity, DIGSA (100=total damage to plant; 0=no damage to plant); for pest or weed control at 125 g/ha: rate 125 g/ha; for pest or weed control at 500 g/ha: rate 500 g/ha. In short, it runs like this: as §1
The test system of test [6] is Setaria faberi (SETFA). Described as above. The note with it: Setaria faberi, evaluated after 14 or 15 days, read-out: Post-emergence activity, SETFA (100=total damage to plant; 0=no damage to plant); for pest or weed control at 125 g/ha: rate 125 g/ha; for pest or weed control at 500 g/ha: rate 500 g/ha. In short, it runs like this:
as §1

Test [7] concerns Echinochloa crus-galli (ECHCG). The test can be described thus: Pre-emergence herbicidal activity, glasshouse pot test. The note with it: Echinochloa crus-galli, 480 h, rate 500 g/ha, evaluated after 20 days, read-out: Pre-emergence activity, ECHCG (100=total damage to plant; 0=no damage to plant). In short, it runs like this:
(§2)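 Pre-emergence application: sprayed one day after seeding into pots of sterilised standard soil. After 20 days' growth in a greenhouse, percent damage was scored visually, 0 meaning unharmed and 100 total damage.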

In test [8] the test system is Avena fatua (AVEFA). The test is described as above. Conditions: Avena fatua, 480 h, rate 500 g/ha, evaluated after 20 days, read-out: Pre-emergence activity, AVEFA (100=total damage to plant; 0=no damage to plant). Summed up: as §2
In test [9] the test system is Alopecurus myosuroides (ALOMY). The description is as above. Conditions: Alopecurus myosuroides, 480 h, rate 500 g/ha, evaluated after 20 days, read-out: Pre-emergence activity, ALOMY (100=total damage to plant; 0=no damage to plant). In short, it runs like this:
as §2

Test [10] relates to Lolium perenne (LOLPE). The description is as above. The note with it: Lolium perenne, 480 h, rate 500 g/ha, evaluated after 20 days, read-out: Pre-emergence activity, LOLPE (100=total damage to plant; 0=no damage to plant). In short, it runs like this: as §2
The test system of test [11] is Digitaria sanguinalis (DIGSA). The test is described as above. The note with it: Digitaria sanguinalis, 480 h, rate 500 g/ha, evaluated after 20 days, read-out: Pre-emergence activity, DIGSA (100=total damage to plant; 0=no damage to plant). Summed up:
as §2

Test [12] concerns Setaria faberi (SETFA). The test is described as above. Conditions: Setaria faberi, 480 h, rate 500 g/ha, evaluated after 20 days, read-out: Pre-emergence activity, SETFA (100=total damage to plant; 0=no damage to plant). Summed up: as §2

Each structure is given as a SMILES string.

Regarding `CCCCCCCCCCCCCCCC(=O)OC1=C(c2c(CC)cc(C)cc2CC)C(=O)CC2(CCOCC2)C1` [Compound P45], the pest or weed control at 125 g/ha was 10% in test [1]; 60% in [2]; 30% in [3]; 0% in [4]; 20% in test [5]; 10% in test [6]. The pest or weed control at 500 g/ha is 100% in [7]; 100% in test [8]; 80% in test [9]; 100% in test [10]; 100% in test [11]; 100% in test [12].
`COC1CCC2(CC1)CC(=O)C(c1cc(C)ccc1C)=C(OC(=O)CC(C)(C)C)C2` (stereo not drawn) [Compound P56]: the pest or weed control at 500 g/ha worked out at 80% in test [1]; 10% in [2] (rate 500 g/ha); 70% in [3]; 70% in [4]; 80% in test [5]; 70% in [6]. Besides, the pest or weed control at 500 g/ha in test [7] came out at 80%; in test [8] it was 60%; in [9] it was 100%; in test [10], 60%; in [11] it was 100%; in test [12] it was 100%.
As for `CCc1cc(C)cc(CC)c1C1=C(O)CC(CC[S+](C)[O-])CC1=O` (stereo not drawn) [Compound T15], the pest or weed control at 500 g/ha is 100% in test [1]; 80% in test [2] (rate 500 g/ha); 90% in test [3]; 100% in [4]; 100% in test [5]; 80% in [6]. Further, the pest or weed control at 500 g/ha in [7] came out at 100%; in test [8], 80%; in test [9] it was 100%; in [10], 100%; in [11] it was 100%; in [12] it was 90%.
With `CCc1cc(C)cc(CC)c1C1=C(O)CC(CC(C)S(=O)(=O)CC)CC1=O` (stereo not drawn) [Compound T28, 2-(2,6-diethyl-4-methylphenyl)-5-[2-(ethylsulfonyl)propyl]cyclohexane-1,3-dione], the pest or weed control at 500 g/ha in [1] stood at 100%; in test [2] (rate 500 g/ha), 100%; in test [3], 90%; in [4], 80%; in [5], 100%; in [6], 90%. Besides, the pest or weed control at 500 g/ha worked out at 100% in test [7]; 100% in [8]; 70% in [9]; 100% in [10]; 100% in [11]; 100% in test [12].
Turning to `CCc1cc(C)cc(CC)c1C1=C(O)CC(CCS(C)(=O)=O)CC1=O` (stereo not drawn) [Compound T14], the pest or weed control at 500 g/ha in [1] came to 100%; in [3], 90%; in test [4], 90%; in test [5], 100%; in [6] it was 100%; in [7], 100%. For the same compound, the pest or weed control at 500 g/ha was 100% in [8]; 90% in test [9]; 100% in test [10]; 100% in test [11]; 100% in test [12]. In addition, the “Post-emergence activity, AVEFA (100=total damage to plant; 0=no damage to plant)” value in test [2] (rate 500 g/ha) is reported as 90.
For `CCc1cc(C)cc(CC)c1C1=C(OS(C)(=O)=O)CC2(CCOCC2)CC1=O` [Compound P24], the pest or weed control at 125 g/ha in test [1], in test [2], in test [3], in test [4], in [5] and in test [6] was 0% each time. Besides, the pest or weed control at 500 g/ha came to 50% in test [7]; 80% in [8]; 80% in test [9]; 80% in [10]; 70% in [11]; 90% in test [12].
`CCc1cc(C)cc(CC)c1C1=C(OC(=O)COC)CC2(CCOCC2)CC1=O` [Compound P8]: the pest or weed control at 125 g/ha came to 100% in test [1]; 100% in [2]; 90% in test [3]; 90% in test [4]; 100% in [5]; 90% in [6]. Also, the pest or weed control at 500 g/ha in [7] worked out at 100%; in test [8], 90%; in test [9] it was 100%; in test [10], 100%; in test [11], 100%; in [12] it was 100%.
As to `CCc1cc(C)cc(CC)c1C1=C(O)CC(C2(SC)CCC2)CC1=O` (stereo not drawn) [Compound T25], the pest or weed control at 500 g/ha in test [1] came out at 80%; in [2] (rate 500 g/ha) it was 100%; in test [3] it was 100%; in test [4], 90%; in test [5] it was 100%; in test [6], 100%. Moreover, the pest or weed control at 500 g/ha in [7], in test [8], in [9], in [10], in test [11] and in [12] was 100% in each case.
`CCc1cc(C)cc(CC)c1C1=C(OC(=O)Cc2ccc(F)cc2)CC2(CCOCC2)CC1=O` [Compound P7]: the pest or weed control at 125 g/ha in [1] is 80%; in [2], 80%; in [3], 80%; in [4] it was 100%; in test [5], 80%; in test [6] it was 80%. Also, the pest or weed control at 500 g/ha in test [7] came to 70%; in test [8] it was 80%; in test [9] it was 40%; in test [10] it was 100%; in [11], 100%; in [12], 100%.

Source of the values: patent US8084649B2, “Herbicides” (Syngenta Crop Protection, inc., priority 2007, dated 2011).
